Experimental data reported in patent publication US6555535B2, “Tricyclic biphenyl sulfonamide matrix metalloproteinase inhibitors” (Warner-Lambert Company, priority 2001, dated 2003).

Tests used:
Assay type in all cases: biochemical
MMP-7FL = target: T1, MMP-7FL (Homo sapiens, UniProt P09237); test: thiopeptolide hydrolysis assay, full length matrilysin; details: thiopeptolide substrate, HEPES pH 7.0, 22° C.
T1 sequence (P09237 95-267): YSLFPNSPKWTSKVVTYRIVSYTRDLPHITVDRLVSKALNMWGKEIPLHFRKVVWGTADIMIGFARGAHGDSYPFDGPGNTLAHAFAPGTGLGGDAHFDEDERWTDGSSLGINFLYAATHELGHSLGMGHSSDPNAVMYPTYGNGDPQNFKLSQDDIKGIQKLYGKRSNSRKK
Excerpt: (§1) The assays measure the amount by which a test compound reduces the hydrolysis of a thiopeptolide substrate catalyzed by a matrix metalloproteinase enzyme. Such assays are described in detail by Ye et al., in Biochemistry, 1992;31(45):11231-11235, which is incorporated herein by reference.
(§2) Thiopeptolide substrates show virtually no decomposition or hydrolysis at or below neutral pH in the absence of a matrix metalloproteinase enzyme. A typical thiopeptolide substrate commonly utilized for assays is Ac-Pro-Leu-Gly-thioester-Leu-Leu-Gly-OEt. A 100 μL assay mixture will contain 50 mM of N-2-hydroxyethylpiperazine-N′-2-ethanesulfonic acid buffer (“HEPES”) at pH 7.0, 10 mM CaCl2, 100 μM thiopeptolide substrate, and 1 mM 5,5′-dithio-bis-(2-nitro-benzoic acid) (DTNB). The thiopeptolide substrate concentration may be varied from, for example, 10 to 800 μM to obtain Km and Kcat values. The change in absorbance at 405 nm is monitored on a Thermo Max microplate reader (Molecular Devices, Menlo Park, Calif.) at room temperature (22° C.). The calculation of the amount of hydrolysis of the thiopeptolide substrate is based on E412=13600 M^−1 cm^−1 for the DTNB-derived product 3-carboxy-4-nitrothiophenoxide. Assays are carried out with and without matrix metalloproteinase inhibitor compounds, and the amount of hydrolysis is compared for a determination of inhibitory activity of the test compounds.
(§3) Several representative compounds have been evaluated for their ability to inhibit various matrix metalloproteinase enzymes. In Table 1, MMP-1FL refers to full length interstitial collagenase; MMP-2FL refers to full length Gelatinase A; MMP-3CD refers to the catalytic domain of stromelysin-1; MMP-7FL refers to full length matrilysin; MMP-9FL refers to full length Gelatinase B; MMP-13CD refers to the catalytic domain of collagenase 3; and MMP-14CD refers to the catalytic domain of MMP-14. Test compounds were evaluated at various concentrations in order to determine their respective IC50 values, the micromolar concentration of compound required to cause a 50% inhibition of the catalytic activity of the respective enzyme.

MMP-3CD = MMP-3CD (Homo sapiens, UniProt P08254); test: thiopeptolide hydrolysis assay, catalytic domain of stromelysin-1; details: thiopeptolide substrate, MES buffer pH 6.0
Chain of MMP-3CD (P08254 100-272 limits assumed): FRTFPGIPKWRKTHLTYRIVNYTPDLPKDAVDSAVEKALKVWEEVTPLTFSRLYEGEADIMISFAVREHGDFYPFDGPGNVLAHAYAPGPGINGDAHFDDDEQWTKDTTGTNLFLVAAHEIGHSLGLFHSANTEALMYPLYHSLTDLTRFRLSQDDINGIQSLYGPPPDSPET
Excerpt: as §1, §2, §3
It should be appreciated that the assay buffer used with MMP-3CD was 50 mM of 2-morpholinoethanesulfonic acid monohydrate (“MES”) at pH 6.0, rather than the HEPES buffer at pH 7.0 described above.

MMP-9FL = MMP-9FL (Homo sapiens, UniProt P14780); test: thiopeptolide hydrolysis assay, full length Gelatinase B; details: thiopeptolide substrate, HEPES pH 7.0, 22° C.
Chain of MMP-9FL (P14780 94-707): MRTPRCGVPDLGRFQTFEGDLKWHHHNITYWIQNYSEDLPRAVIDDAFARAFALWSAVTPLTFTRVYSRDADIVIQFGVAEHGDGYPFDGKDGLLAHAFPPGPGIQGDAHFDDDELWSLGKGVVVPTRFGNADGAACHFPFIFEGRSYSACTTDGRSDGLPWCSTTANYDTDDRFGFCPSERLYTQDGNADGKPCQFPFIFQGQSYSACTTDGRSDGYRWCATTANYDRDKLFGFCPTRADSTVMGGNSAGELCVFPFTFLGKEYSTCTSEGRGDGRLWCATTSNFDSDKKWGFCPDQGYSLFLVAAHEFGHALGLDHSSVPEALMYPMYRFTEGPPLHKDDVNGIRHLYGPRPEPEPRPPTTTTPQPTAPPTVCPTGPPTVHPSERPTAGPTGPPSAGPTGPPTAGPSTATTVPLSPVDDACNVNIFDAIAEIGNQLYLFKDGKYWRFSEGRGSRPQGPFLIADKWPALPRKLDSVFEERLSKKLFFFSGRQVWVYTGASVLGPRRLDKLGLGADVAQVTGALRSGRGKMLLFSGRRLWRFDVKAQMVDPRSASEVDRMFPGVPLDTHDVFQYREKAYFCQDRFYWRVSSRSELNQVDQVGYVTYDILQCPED
Excerpt: as §1, §2, §3

MMP-13CD = MMP-13CD (Homo sapiens, UniProt P45452); test: thiopeptolide hydrolysis assay, catalytic domain of collagenase 3; details: thiopeptolide substrate, HEPES pH 7.0, 22° C.
Excerpt: as §1, §2, §3

MMP-14CD = MMP-14CD (Homo sapiens, UniProt P50281); test: thiopeptolide hydrolysis assay, catalytic domain of MMP-14; details: thiopeptolide substrate, HEPES pH 7.0, 22° C.
Excerpt: as §1, §2, §3

MMP-2FL = target: T2, MMP-2FL (Homo sapiens, UniProt P08253); test: thiopeptolide hydrolysis assay, full length Gelatinase A; details: thiopeptolide substrate, HEPES pH 7.0, 22° C.
T2 sequence (P08253 110-660): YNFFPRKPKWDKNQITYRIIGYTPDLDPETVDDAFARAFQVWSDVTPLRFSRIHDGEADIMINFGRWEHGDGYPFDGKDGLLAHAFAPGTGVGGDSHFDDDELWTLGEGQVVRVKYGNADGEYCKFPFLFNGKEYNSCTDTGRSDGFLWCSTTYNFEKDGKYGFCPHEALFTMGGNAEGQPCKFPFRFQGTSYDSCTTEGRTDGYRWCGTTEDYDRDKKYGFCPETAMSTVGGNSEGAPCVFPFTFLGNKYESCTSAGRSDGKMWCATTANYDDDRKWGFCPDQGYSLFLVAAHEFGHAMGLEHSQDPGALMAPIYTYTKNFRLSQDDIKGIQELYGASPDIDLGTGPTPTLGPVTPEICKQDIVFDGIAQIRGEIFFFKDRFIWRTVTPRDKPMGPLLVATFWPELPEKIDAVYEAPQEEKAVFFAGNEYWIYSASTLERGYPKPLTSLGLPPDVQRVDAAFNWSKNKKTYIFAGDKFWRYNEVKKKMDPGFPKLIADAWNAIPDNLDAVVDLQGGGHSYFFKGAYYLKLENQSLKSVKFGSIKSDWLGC
Excerpt: as §1, §2, §3

MMP-1FL = target: T3, MMP-1FL (Homo sapiens, UniProt P03956); test: thiopeptolide hydrolysis assay, full length interstitial collagenase; details: thiopeptolide substrate, HEPES pH 7.0, 22° C.
T3 sequence (P03956 100-469): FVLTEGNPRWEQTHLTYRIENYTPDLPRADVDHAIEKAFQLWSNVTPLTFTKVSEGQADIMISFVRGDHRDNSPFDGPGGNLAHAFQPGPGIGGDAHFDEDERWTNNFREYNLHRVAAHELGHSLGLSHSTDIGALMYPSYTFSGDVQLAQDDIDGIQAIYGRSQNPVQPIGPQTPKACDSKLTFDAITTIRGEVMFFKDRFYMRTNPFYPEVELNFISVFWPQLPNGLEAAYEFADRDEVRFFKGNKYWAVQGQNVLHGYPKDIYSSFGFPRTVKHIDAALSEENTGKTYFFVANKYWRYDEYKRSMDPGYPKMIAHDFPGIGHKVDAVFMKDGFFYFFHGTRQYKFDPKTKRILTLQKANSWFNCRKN
Excerpt: as §1, §2, §3

IC50 (MMP-7FL)	IC50 (MMP-3CD)	IC50 (MMP-9FL)	IC50 (MMP-13CD)	IC50 (MMP-14CD)	IC50 (MMP-2FL)	IC50 (MMP-1FL)	SMILES
100000 nM	39 nM	54000 nM	1310 nM	150 nM	390 nM	6900 nM	CC1(C)SCCN(S(=O)(=O)c2ccc3c4c(oc3c2)CCCC4)[C@H]1C(=O)O [Example 3, (S)-2,2-Dimethyl-4-(6,7,8,9-tetrahydro-dibenzofuran-3-sulfonyl)thiomorpholine-3-carboxylic Acid]
230 nM	9 nM	210 nM	12 nM	52 nM	82 nM	69 nM	CC1(C)SCCN(S(=O)(=O)c2ccc3c4c(oc3c2)CCCC4)[C@H]1C(=O)NO [Example 4, (S)-2,2-Dimethyl-4-(6,7,8,9-tetrahydro-dibenzofuran-3-sulfonyl)thiomorpholine-3-carboxylic Hydroxamide]
420 nM	15 nM	450 nM	6.2 nM	53 nM	220 nM	970 nM	CC1(C)C(C(=O)NO)N(S(=O)(=O)c2ccc3c4c(oc3c2)CCCCC4)CCS1(=O)=O (stereo not shown) [Example 7, 2,2-Dimethyl-1,1-dioxo-4-(6,7,8,9-tetrahydro-5H-10-oxa-benzo{a}azulene-2-sulfonyl)-1l^6-thiomorpholine-3-carboxylic Acid Hydroxyamide]

SMILES	IC50 (MMP-7FL)	IC50 (MMP-3CD)	IC50 (MMP-9FL)	IC50 (MMP-13CD)	IC50 (MMP-14CD)	IC50 (MMP-2FL)	IC50 (MMP-1FL)
CC1(C)C(C(=O)O)N(S(=O)(=O)c2ccc3c4c(oc3c2)CCCCC4)CCS1(=O)=O (stereo not shown) [Example 6, 2,2-Dimethyl-1,1-dioxo-4-(6,7,8,9-tetrahydro-5H-10-oxa-benzo{a}azulene-2-sulfonyl)-1l^6-thiomorpholine-3-carboxylic Acid]	41000 nM	37 nM	70000 nM	2100 nM	93 nM	600 nM	40000 nM
